Read-outs that look alike come from different tables or passages of the source. Starred links: 1 amine or outer side, 2 acyl side, 3 side chain; linkers in the order of their positions; H or OH if unused. Positions of bridges follow the written chain, without caps; N, C: chain ends. Non-standard residues stand in square brackets, D forms with d. Residues, ends and D or L forms follow the SMILES beside them. hCys = N[C@@H](CCS)C(=O)O; Dab = NCC[C@H](N)C(=O)O; Dap = NC[C@H](N)C(=O)O; X1 = O=C(C[*:2])[*:1]; X2 = O=C(C[*:1])[*:2]
Experiments:
[1] = Evaluation of molecule stability (alkali treatment, residual rate by LC/MS); type: physicochemical; settings: 500 μM peptide aqueous solution plus equivalent of 1 M sodium hydroxide, 15° C., 3 hours, LC/MS peak area
Experimental: The molecule stability of the cyclic peptide was evaluated by analyzing the alkali-treated cyclic peptide aqueous solution by liquid chromatography mass spectroscopy (LC/MS).
The alkali treatment was carried out by the following method. A 500 μM cyclic peptide aqueous solution was prepared, an equivalent of 1 M sodium hydroxide aqueous solution was added to this aqueous solution, and the resultant mixture was incubated at 15° C. for 3 hours to obtain an alkali-treated cyclic peptide aqueous solution. The cyclic peptide residual rate was calculated by setting the total area of all peaks of the cyclic peptide before alkali treatment in LC/MS to 100% and determining the proportion of the total area of all peaks in LC/MS of the alkali-treated cyclic peptide aqueous solution, and the molecule stability was evaluated according to the following evaluation standards. It is preferable that the evaluation result satisfies the evaluation standard A, B, or C.
The conditions of the LC/MS used for the evaluation of molecule stability were set as follows. • LC apparatus: Prominence series (pump, column oven, autosampler, detector) (manufactured by Shimadzu Corporation) • MS detector: LC/MS2010EV (manufactured by Shimadzu Corporation) • Column: Cadenza CD-C18, inner diameter 2.0 mm×length 250 mm, particle size: 3 μm (manufactured by Imtakt Corporation) • Eluent A: a solution (pH 3) containing 10 mM ammonium formate as a solute, where the solvent is 100% water. • Eluent B: a solution (pH 3) containing 10 mM ammonium formate as a solute, where the solvent is acetonitrile/water=90/10. • Flow rate: 0.2 mL/min • Injection volume: 4 μL • Gradient: 0% to 30%: Eluent B (0 to 30 minutes), 100%: Eluent B (30 to 40 minutes), 0%: Eluent B (40 to 60 minutes) • Column temperature: 45° C. • Ionization method: electrospray ionization (ESI) positive, ESI negative

[2] = molecular target: human integrin αvβ5 (Homo sapiens, UniProt P06756+P18084); assay: Evaluation of integrin binding property (surface plasmon resonance, Biacore 3000, immobilized cyclic peptide)
Experimental: A commercially available CMS (a carboxymethyl dextran introduction type, manufactured by GE Healthcare) sensor chip was set in Biacore 3000, which is a surface plasmon resonance apparatus manufactured by GE Healthcare, the sensor was stabilized at a flow rate of 10 μL/min of a HEPES (4-(2-hydroxyethyl)-1-piperazineethanesulfonic acid) buffer solution (20 mM HEPES-HCl, 150 mM NaCl, pH 7.4) for surface plasmon resonance (SPR), and 70 μL of a mixed aqueous solution of 0.2 M 1-(3-dimethylaminopropyl)-3-ethylcarbodiimide (EDC) and 0.04 M N-hydroxysuccinimide (NHS) was added thereto. Here, the concentration unit M represents mol/L, and the same applies hereinafter. Then, 20 μL of the sample solution of each of the above cyclic peptides diluted to 0.2 g/L with the HEPES buffer solution was supplied to the sensor chip, blocking treatment was subsequently carried out with an ethanolamine solution, and washing was carried out with a sodium hydroxide aqueous solution, whereby immobilization was carried out. However, only for the cyclic peptides 125, 126, and 127, in which the number of lysine residues having an amino group as the immobilizing functional group was zero, the amount of the sample solution to be supplied to the sensor chip was set to 500 μL instead of 20 μL. Further, 70 μL of the mixed aqueous solution of 0.2 M EDC and 0.04 M NHS was added to another flow channel of the same sensor chip without immobilizing the sample, and then blocking treatment and washing treatment were carried out. Hereinafter, the obtained immobilization-treated sensor chip is referred to as an “immobilization-treated sensor chip A”.
After adding human integrin αvβ5 for 10 minutes at 25° C., which was diluted to 30 nM using a HEPES buffer solution to which magnesium chloride was added to 5 mM, in each flow channel of the immobilization-treated sensor chip A prepared in (1) above, the same HEPES buffer solution (containing 5 mM magnesium chloride) was allowed to flow as a running buffer for 30 minutes, and measurement was carried out with Biacore 3000. Then, a regeneration treatment of removing human integrin αvβ5 was carried out by allowing a 0.5 M EDTA aqueous solution to flow through each flow channel for 10 minutes. Further, the above-described measurement process consisting of adding integrin for 10 minutes, allowing a running buffer to flow for 30 minutes, carrying out measurement with Biacore 3000, and carrying out regeneration treatment with 0.5 M EDTA aqueous solution was carried out in the same manner for 100 nM human integrin αvβ5, 300 nM human integrin αvβ5, and 1,000 nM human integrin αvβ5. Dissociation constant between the cyclic peptide and human integrin αvβ5 was calculated from the difference between the value measured by Biacore 3000 in the flow channel immobilized with the cyclic peptide and the value measured by Biacore 3000 in the flow channel unimmobilized with the cyclic peptide, in a case where each concentration of human integrin αvβ5 was allowed to flow, and the integrin binding property was evaluated according to the following evaluation standards. It is preferable that the evaluation result satisfies the evaluation standard A, B, or C.

[3] = SPR, 25° C., HEPES buffer with 5 mM magnesium chloride, integrin 30-1,000 nM, read-out: Performance evaluation: Binding activity (dissociation constant between the cyclic peptide and human integrin αvβ5)

human integrin αvβ5, sequence (P06756 31-1048): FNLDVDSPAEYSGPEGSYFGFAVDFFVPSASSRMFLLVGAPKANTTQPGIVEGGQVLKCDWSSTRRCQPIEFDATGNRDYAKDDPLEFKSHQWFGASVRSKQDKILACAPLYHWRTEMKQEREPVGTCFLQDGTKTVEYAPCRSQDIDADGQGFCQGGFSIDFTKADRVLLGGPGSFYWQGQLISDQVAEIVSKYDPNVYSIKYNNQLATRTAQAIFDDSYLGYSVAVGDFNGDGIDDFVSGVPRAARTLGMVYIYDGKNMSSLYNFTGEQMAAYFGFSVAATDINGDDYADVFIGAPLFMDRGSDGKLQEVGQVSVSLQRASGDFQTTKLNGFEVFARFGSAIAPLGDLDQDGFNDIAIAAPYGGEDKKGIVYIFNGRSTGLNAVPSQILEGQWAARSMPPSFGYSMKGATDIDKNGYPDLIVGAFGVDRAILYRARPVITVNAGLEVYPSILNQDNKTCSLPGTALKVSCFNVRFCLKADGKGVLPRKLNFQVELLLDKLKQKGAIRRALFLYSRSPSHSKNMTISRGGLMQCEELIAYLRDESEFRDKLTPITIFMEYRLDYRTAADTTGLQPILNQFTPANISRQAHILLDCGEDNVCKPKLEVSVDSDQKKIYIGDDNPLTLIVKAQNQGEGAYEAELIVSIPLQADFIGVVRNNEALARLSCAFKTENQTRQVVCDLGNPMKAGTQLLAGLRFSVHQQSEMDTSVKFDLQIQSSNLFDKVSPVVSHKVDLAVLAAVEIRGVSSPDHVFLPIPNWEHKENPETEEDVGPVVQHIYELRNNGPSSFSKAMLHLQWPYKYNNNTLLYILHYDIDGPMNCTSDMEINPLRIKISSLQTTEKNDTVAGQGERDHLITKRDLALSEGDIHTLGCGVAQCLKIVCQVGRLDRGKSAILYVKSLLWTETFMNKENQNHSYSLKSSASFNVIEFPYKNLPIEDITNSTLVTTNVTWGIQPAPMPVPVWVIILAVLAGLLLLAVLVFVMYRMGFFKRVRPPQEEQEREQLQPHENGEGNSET
human integrin αvβ5, sequence (P18084 24-799): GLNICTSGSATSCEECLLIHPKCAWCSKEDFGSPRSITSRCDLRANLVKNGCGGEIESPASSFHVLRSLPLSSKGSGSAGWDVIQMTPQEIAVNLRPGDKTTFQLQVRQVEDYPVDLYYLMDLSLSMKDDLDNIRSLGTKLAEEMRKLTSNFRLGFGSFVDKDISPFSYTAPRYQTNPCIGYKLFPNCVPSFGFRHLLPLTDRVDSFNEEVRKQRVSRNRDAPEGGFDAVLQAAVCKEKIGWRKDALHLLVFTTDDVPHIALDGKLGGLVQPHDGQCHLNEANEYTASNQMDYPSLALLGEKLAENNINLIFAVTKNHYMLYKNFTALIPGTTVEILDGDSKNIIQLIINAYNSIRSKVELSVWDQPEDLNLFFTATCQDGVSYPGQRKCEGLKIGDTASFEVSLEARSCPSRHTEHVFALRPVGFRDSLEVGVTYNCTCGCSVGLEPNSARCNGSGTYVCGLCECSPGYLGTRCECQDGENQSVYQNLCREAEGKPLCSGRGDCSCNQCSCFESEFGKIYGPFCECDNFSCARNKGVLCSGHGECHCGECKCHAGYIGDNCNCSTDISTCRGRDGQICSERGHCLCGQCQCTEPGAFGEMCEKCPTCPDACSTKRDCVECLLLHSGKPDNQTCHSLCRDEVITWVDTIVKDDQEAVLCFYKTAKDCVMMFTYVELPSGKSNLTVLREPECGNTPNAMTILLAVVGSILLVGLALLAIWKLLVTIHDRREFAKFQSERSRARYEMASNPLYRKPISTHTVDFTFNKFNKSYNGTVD

C[C@H](NC(=O)[C@@H]1CCNC(=O)CSCC[C@H](NC(=O)[C@H](CCCCN)NC(=O)[C@H](CCCCN)NC(=O)[C@@H](N)CCCCN)C(=O)N2CCC[C@H]2C(=O)N[C@@H](CCCNC(=N)N)C(=O)NCC(=O)N[C@@H](CC(=O)O)C(=O)N[C@@H](CC(N)=O)C(=O)N[C@@H](Cc2ccccc2)C(=O)N[C@@H](CCCNC(=N)N)C(=O)N1)C(=O)O [Cyclic peptide 9, KKK-(Hcy)-PRGDNFR(Dab(acetyl))A] (H-KKK[hCys]PRGDNFR[Dab]A-OH; linker 4-12 via X2)
Performance evaluation: Stability (residual rate of cyclic peptide after alkali treatment) [1]: A (The residual rate of the cyclic peptide is 70% or more.) | Kd [2, 3]: 100 to 200 nM

CC[C@H](C)[C@@H]1NC(=O)[C@@H](NC(=O)[C@H](CCCCN)NC(=O)[C@H](CCCCN)NC(=O)[C@@H](N)CCCCN)CCSCC(=O)NCC[C@@H](C(=O)N[C@@H](C)C(=O)O)NC(=O)[C@H](Cc2ccccc2)NC(=O)[C@H](CC(N)=O)NC(=O)[C@H](CC(=O)O)NC(=O)CNC(=O)[C@H](CCCNC(=N)N)NC(=O)[C@@H]2CCCN2C1=O [Cyclic peptide 10, KKK-(Hcy)-IPRGDNF(Dab(acetyl))A] (H-KKK[hCys]IPRGDNF[Dab]A-OH; linker 4-12 via X2)
Performance evaluation: Stability (residual rate of cyclic peptide after alkali treatment) [1]: A (The residual rate of the cyclic peptide is 70% or more.) | Kd [2, 3]: 50 to 100 nM

CC[C@H](C)[C@@H]1NC(=O)[C@@H](NC(=O)[C@H](CCCCN)NC(=O)[C@H](CCCCN)NC(=O)[C@@H](N)CCCCN)CCSCC(=O)NCC[C@@H](C(=O)O)NC(=O)[C@H](CCCNC(=N)N)NC(=O)[C@H](Cc2ccccc2)NC(=O)[C@H](CC(N)=O)NC(=O)[C@H](CC(=O)O)NC(=O)CNC(=O)[C@H](CCCNC(=N)N)NC(=O)[C@@H]2CCCN2C1=O [Cyclic peptide 11, KKK-(Hcy)-IPRGDNFR(Dab(acetyl))] (H-KKK[hCys]IPRGDNFR[Dab]-OH; linker 4-13 via X2)
Performance evaluation: Stability (residual rate of cyclic peptide after alkali treatment) [1]: A (The residual rate of the cyclic peptide is 70% or more.) | Kd [2, 3]: < 50 nM

CC[C@H](C)[C@@H]1NC(=O)[C@@H](NC(=O)[C@H](CCCCN)NC(=O)[C@H](CCCCN)NC(=O)[C@@H](N)CCCCN)CNC(=O)CSCC[C@@H](C(=O)O)NC(=O)[C@H](CCCNC(=N)N)NC(=O)[C@H](Cc2ccccc2)NC(=O)[C@H](CC(N)=O)NC(=O)[C@H](CC(=O)O)NC(=O)CNC(=O)[C@H](CCCNC(=N)N)NC(=O)[C@@H]2CCCN2C1=O [Cyclic peptide 12, KKK(Dap(acetyl))IPRGDNFR-(Hcy)] (H-KKK[Dap]IPRGDNFR[hCys]-OH; linker 4-13 via X1)
Performance evaluation: Stability (residual rate of cyclic peptide after alkali treatment) [1]: B (The residual rate of the cyclic peptide is 50% or more and less than 70%.) | Kd [2, 3]: 50 to 100 nM

CC[C@H](C)[C@@H]1NC(=O)[C@@H](NC(=O)[C@H](CCCCN)NC(=O)[C@H](CCCCN)NC(=O)[C@@H](N)CCCCN)CCSCC(=O)NCC[C@@H](C(=O)O)NC(=O)[C@H](Cc2ccccc2)NC(=O)[C@H](CC(N)=O)NC(=O)[C@H](CC(=O)O)NC(=O)CNC(=O)[C@H](CCCNC(=N)N)NC(=O)[C@@H]2CCCN2C1=O [Cyclic peptide 13, KKK-(Hcy)-IPRGDNF(Dab(acetyl))] (H-KKK[hCys]IPRGDNF[Dab]-OH; linker 4-12 via X2)
Performance evaluation: Stability (residual rate of cyclic peptide after alkali treatment) [1]: A (The residual rate of the cyclic peptide is 70% or more.) | Kd [2, 3]: < 50 nM

CC(C)[C@@H]1NC(=O)[C@@H](NC(=O)[C@H](CCCCN)NC(=O)[C@H](CCCCN)NC(=O)[C@@H](N)CCCCN)CCSCC(=O)NCC[C@@H](C(=O)O)NC(=O)[C@H](Cc2ccccc2)NC(=O)[C@H](CC(N)=O)NC(=O)[C@H](CC(=O)O)NC(=O)CNC(=O)[C@H](CCCNC(=N)N)NC(=O)[C@@H]2CCCN2C1=O [Cyclic peptide 14, KKK-(Hcy)-VPRGDNF(Dab(acetyl))] (H-KKK[hCys]VPRGDNF[Dab]-OH; linker 4-12 via X2)
Performance evaluation: Stability (residual rate of cyclic peptide after alkali treatment) [1]: A (The residual rate of the cyclic peptide is 70% or more.) | Kd [2]: < 50 nM

CC[C@H](C)[C@@H]1NC(=O)[C@H](C)NC(=O)[C@@H](NC(=O)[C@H](CCCCN)NC(=O)[C@H](CCCCN)NC(=O)[C@@H](N)CCCCN)CCSCC(=O)NCC[C@@H](C(=O)N[C@@H](C)C(=O)O)NC(=O)[C@H](CCCNC(=N)N)NC(=O)[C@H](Cc2ccccc2)NC(=O)[C@H](CC(N)=O)NC(=O)[C@H](CC(=O)O)NC(=O)CNC(=O)[C@H](CCCNC(=N)N)NC(=O)[C@@H]2CCCN2C1=O [Cyclic peptide 15, KKK-(Hcy)-AIPRGDNFR(Dab(acetyl))A] (H-KKK[hCys]AIPRGDNFR[Dab]A-OH; linker 4-14 via X2)
Performance evaluation: Stability (residual rate of cyclic peptide after alkali treatment) [1]: A (The residual rate of the cyclic peptide is 70% or more.) | Kd [2, 3]: 50 to 100 nM

CC[C@H](C)[C@@H]1NC(=O)[C@@H](NC(=O)[C@H](CCCCN)NC(=O)[C@H](CCCCN)NC(=O)[C@@H](N)CCCCN)CCSCC(=O)NCC[C@@H](C(=O)N[C@@H](C)C(=O)O)NC(=O)[C@H](C)NC(=O)[C@H](CCCNC(=N)N)NC(=O)[C@H](Cc2ccccc2)NC(=O)[C@H](CC(N)=O)NC(=O)[C@H](CC(=O)O)NC(=O)CNC(=O)[C@H](CCCNC(=N)N)NC(=O)[C@@H]2CCCN2C1=O [Cyclic peptide 16, KKK-(Hcy)-IPRGDNFRA(Dab(acetyl))A] (H-KKK[hCys]IPRGDNFRA[Dab]A-OH; linker 4-14 via X2)
Performance evaluation: Stability (residual rate of cyclic peptide after alkali treatment) [1]: A (The residual rate of the cyclic peptide is 70% or more.) | Kd [2, 3]: 50 to 100 nM

CC[C@H](C)[C@@H]1NC(=O)[C@H](C)NC(=O)[C@@H](NC(=O)[C@H](CCCCN)NC(=O)[C@H](CCCCN)NC(=O)[C@@H](N)CCCCN)CCSCC(=O)NCC[C@@H](C(=O)N[C@@H](C)C(=O)O)NC(=O)[C@H](C)NC(=O)[C@H](CCCNC(=N)N)NC(=O)[C@H](Cc2ccccc2)NC(=O)[C@H](CC(N)=O)NC(=O)[C@H](CC(=O)O)NC(=O)CNC(=O)[C@H](CCCNC(=N)N)NC(=O)[C@@H]2CCCN2C1=O [Cyclic peptide 17, KKK-(Hcy)-AIPRGDNFRA(Dab(acetyl))A] (H-KKK[hCys]AIPRGDNFRA[Dab]A-OH; linker 4-15 via X2)
Performance evaluation: Stability (residual rate of cyclic peptide after alkali treatment) [1]: A (The residual rate of the cyclic peptide is 70% or more.) | Kd [2, 3]: 50 to 100 nM

CC[C@H](C)[C@@H]1NC(=O)[C@H](C)NC(=O)[C@H](C)NC(=O)[C@@H](NC(=O)[C@H](CCCCN)NC(=O)[C@H](CCCCN)NC(=O)[C@@H](N)CCCCN)CCSCC(=O)NCC[C@@H](C(=O)N[C@@H](C)C(=O)O)NC(=O)[C@H](CCCNC(=N)N)NC(=O)[C@H](Cc2ccccc2)NC(=O)[C@H](CC(N)=O)NC(=O)[C@H](CC(=O)O)NC(=O)CNC(=O)[C@H](CCCNC(=N)N)NC(=O)[C@@H]2CCCN2C1=O [Cyclic peptide 18, KKK-(Hcy)-AAIPRGDNFR(Dab(acetyl))A] (H-KKK[hCys]AAIPRGDNFR[Dab]A-OH; linker 4-15 via X2)
Performance evaluation: Stability (residual rate of cyclic peptide after alkali treatment) [1]: A (The residual rate of the cyclic peptide is 70% or more.) | Kd [2, 3]: 50 to 100 nM
